Source: paper PMC8698657, “Absorption and Transport Characteristics and Mechanisms of Carnosic Acid” (Biology, 2021)
Several values for one entry are separate records, joined by “and”; a condition that tells them apart may be missing. Equal values may be shown once.

Tests used:
[1] = Tissue distribution of CA in mice by HPLC after oral gavage; assay type: in vivo; settings: 50 mg/kg/daily oral gavage 7 days, 4 h after last gavage
Source text: (§1) The animal experiment protocol was approved by the Institutional Animal Care and Use Committee of Guangzhou Medical University (#GY2020-067, 30 July 2020). Male ICR mice aged 5–6 weeks were kept in a specific-pathogen-free environment with 12-h light/dark cycles. […] Both groups were allowed to eat and drink ad libitum. Four hours after the last gavage, the mice were anesthetized, and their eyeballs were removed for blood collection. They were sacrificed and immediately dissected in the supine position. Serum, major organs (heart, liver, lung, stomach, spleen, kidney, small intestine, cecum, and colon), and the contents of the stomach, small intestine, cecum, and colon were collected, weighed, and stored at −80 °C.
Tissue samples and the contents of the digestive tract were homogenized in ultrapure water at 55 Hz for 8 min. Tissue/content homogenate (1 mL) or serum (100 μL) was mixed with 1 mL of 50% methanol, and the mixture was vortexed for 2 min. The mixture was extracted with ethyl acetate three times (6, 3, and 3 mL of ethyl acetate) and vortexed again for 2 min. The sample was centrifuged at 5000 rpm/min at 4 °C for 15 min, and the upper organic phase was dried under vacuum. Then, it was dissolved in 5% phosphoric acid methanol solution and filtered through a 0.22 μm microporous membrane. Concentrations of CA in serum, tissue, and content samples were determined using HPLC. CA standard was added to all samples, and the recovery rate was calculated. The chromatographic conditions for HPLC analysis were as follows: C18 chromatographic column: 5 μm, 150 × 4.6 mm; column temperature: 25 °C; mobile phase: methanol/0.1% phosphoric acid solution at 85%/15%; flow rate: 1.0 mL/min; detection wavelength: 230 nm; injection volume: 10 μL.

[2] = Body weight, organ weights and appearance of CA-fed mice; assay type: in vivo; settings: 50 mg/kg/daily oral gavage
Source text: as §1

## CC(C)c1cc2c(c(O)c1O)[C@@]1(C(=O)O)CCCC(C)(C)[C@@H]1CC2 [CA, Carnosic acid]
[1]
  Concentration of CA in Cecal content: 0.15 nmol/g or mL and 0.15 ± 0.00 nmol/g or mL
  Concentration of CA in Cecum: 2965.1 nmol/g or mL and 2965.10 ± 3.31 nmol/g or mL
  Concentration of CA in Colon: 179.4 nmol/g or mL and 179.43 ± 0.26 nmol/g or mL
  Concentration of CA in Colonic content: 74.54 nmol/g or mL and 74.54 ± 0.21 nmol/g or mL
  Concentration of CA in Gastric content: 1.08 nmol/g or mL and 1.08 ± 0.00 nmol/g or mL
  Concentration of CA in Heart: 0.75 ± 0.00 nmol/g or mL
  Concentration of CA in Kidney: 0.66 ± 0.02 nmol/g or mL
  Concentration of CA in Liver: 10.56 ± 0.01 nmol/g or mL
  Concentration of CA in Lung: 1.68 ± 0.00 nmol/g or mL
  Concentration of CA in Serum: 15.22 ± 0.02 nmol/g or mL
  Concentration of CA in Small intestine: 1.87 nmol/g or mL and 1.87 ± 0.00 nmol/g or mL
  Concentration of CA in Small intestine content: 13.93 nmol/g or mL and 13.93 ± 0.01 nmol/g or mL
  Concentration of CA in Spleen: 13.42 ± 0.01 nmol/g or mL
  Concentration of CA in Stomach: 35.98 ± 0.09 nmol/g or mL
[1]; male, ICR, mouse, serum, read-out: CA detected in serum
  concentration at 4 h: 15.2 µM
[2]
  adverse effects: not associated with noticeable adverse effects
  body weight and weights of liver and spleen, CA-fed vs control mice: no significant difference
[2]; week 1
  Body Weight: 33.2 ± 0.9 g
[2]; week 2
  Body Weight: 34.8 ± 2.5 g
[2]; week 3
  Body Weight: 37.1 ± 1.8 g
[2]; week 4
  Body Weight: 38.9 ± 2.4 g
[2]; week 5
  Body Weight: 41.2 ± 3.1 g
